≈ marks a conversion by molar mass, not a printed value. Entries after “also recorded” stand apart in the source; their conditions may differ.
Columns and labels:
Jack bean urease = molecular target: T1, Jack bean urease (Canavalia ensiformis, UniProt P07374); assay: biochemical; format: biochemical
T1 construct: purchased Sigma Aldrich
Experimental: Reaction mixture comprising 40 μL of buffer (K2HPO4: 10 mmol/L, urea: 100 mmol/L, […]: 10 mmol/L, EDTA: 1 /L mmol, pH = 8.2) and 5 U/mL enzyme (10 μL) were pre-incubated with 10 μL of synthesized compounds (1 mM) and substrate urea (1 mM) were incubated at room temperature in 96 well plate for half an hour. After the incubation at room temperature, absorbance was taken at specific wavelength (630 nm) employing a microplate reader (Bio-Tek, USA) with R1 and R2 reagents in each well. The reactions were measured in triplicate fashion. To calculate the inhibition percentage following equation was used.
Percentage inhibition = 100 –[tested compound/control compound] × 100.

H. pylori [1] = assay: IC50 against H. pylori, micro broth dilution test; format: cell-based, Helicobacter pylori; settings: Helicobacter pylori, ATCC43504; H. pylori ATCC 43504, micro broth dilution, 72 h, OD 600 nm; read-out: IC50 value against H. pylori ± SEM
urease = molecular target: T2, urease (Canavalia ensiformis, UniProt P07374); assay: Enzyme kinetics study (Michaelis-Menten, Lineweaver-Burk) of urease inhibition; format: biochemical, Jack bean; settings: urea substrate 0.5-2.0 mM, inhibitor 0, 1.5, 3.0, 4.5 μM, Lineweaver-Burk plot
T2 construct: purchased Sigma Aldrich
Experimental: The type of enzyme inhibition was determined by Michaelis-Menten kinetics experiments. In order to investigate the potential mechanism of action of the potent compound 2c, detailed kinetics studies were conducted. The initial inhibitory efficacy rates of enzyme activity were measured at four different concentrations of substrate (0.5, 1.0, 1.5 and 2.0 mM) in the presence or absence of compound 2c (0, 1.5, 3.0, 4.5 μM) against urease.
Kinetics studies were performed to determine the mode of action of compound 2c. The mechanism of inhibition of urease was determined by enzyme kinetics using urea as a substrate. To determine the type of inhibition, analyze the effect of inhibitor on Vmax and Km, a Lineweaver-Burk plot (reciprocal of reaction rates […] and reciprocal of substrate concentrations […]) was used.
Different concentrations of inhibitor 2c and substrate were used to perform kinetics. Four concentrations (0, 1.5, 3.0, 4.5 μM) of inhibitor 2c and four concentrations (0.5, 1.0, 1.5 and 2.0 mM) of substrate were used.

H. pylori [2] = assay: MIC against H. pylori, agar dilution method; format: cell-based, Helicobacter pylori; settings: Helicobacter pylori, ATCC43504; H. pylori ATCC 43504, agar dilution; read-out: MIC value against H. pylori ± SEM

T2 sequence (P07374 whole entry, looked up): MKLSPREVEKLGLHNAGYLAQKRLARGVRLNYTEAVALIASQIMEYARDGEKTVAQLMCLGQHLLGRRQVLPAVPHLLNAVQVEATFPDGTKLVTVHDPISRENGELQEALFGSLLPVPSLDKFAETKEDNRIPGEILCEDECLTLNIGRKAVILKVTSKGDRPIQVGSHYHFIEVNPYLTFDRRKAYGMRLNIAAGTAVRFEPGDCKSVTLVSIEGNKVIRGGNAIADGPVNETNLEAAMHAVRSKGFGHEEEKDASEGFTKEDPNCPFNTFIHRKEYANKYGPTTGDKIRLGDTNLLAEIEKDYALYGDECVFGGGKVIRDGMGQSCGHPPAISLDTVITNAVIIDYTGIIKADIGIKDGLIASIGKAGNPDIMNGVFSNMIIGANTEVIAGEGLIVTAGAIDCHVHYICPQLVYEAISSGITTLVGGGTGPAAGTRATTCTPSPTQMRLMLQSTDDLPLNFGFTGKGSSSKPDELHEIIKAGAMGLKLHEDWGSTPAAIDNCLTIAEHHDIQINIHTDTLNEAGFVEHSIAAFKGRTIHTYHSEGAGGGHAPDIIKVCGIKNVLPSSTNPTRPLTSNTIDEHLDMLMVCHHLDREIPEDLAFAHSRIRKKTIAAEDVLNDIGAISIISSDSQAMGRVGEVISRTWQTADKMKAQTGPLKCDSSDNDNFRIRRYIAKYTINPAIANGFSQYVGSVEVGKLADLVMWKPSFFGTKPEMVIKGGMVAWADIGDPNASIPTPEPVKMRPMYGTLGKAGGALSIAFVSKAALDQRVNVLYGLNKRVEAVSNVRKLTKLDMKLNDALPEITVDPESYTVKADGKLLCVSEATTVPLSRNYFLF
T1 sequence (P07374 whole entry, looked up): as above

In the case of CCCS(=O)(=O)Oc1cccc(-c2nc3sccn3c2-c2cccc(S(C)(=O)=O)c2)c1 [Compound 2c, 3-(5-(3-(Methylsulfonyl)phenyl)imidazo[2,1-b]thiazol-6-yl)phenyl propane-1-sulfonate], the IC50 (Jack bean urease) is reported as 2.94 ± 0.05 µM, the “fold more potent than thiourea positive control (urease inhibition)” value (Jack bean urease; ratio of IC50 vs thiourea) is reported as 8 fold and the IC50 (H. pylori [1]) is reported as 281 ± 21 µM. For the same molecule, the “type of urease inhibition” value (urease) was “competitive inhibition; also recorded: competitive inhibitor”, the melting point was 188 to 191 °C and the MIC (H. pylori [2]) was 800 µM (≈ 381 µg/mL).

From paper PMC10237672, “Design and synthesis of novel anti-urease imidazothiazole derivatives with promising antibacterial activity against Helicobacter pylori” (PLOS ONE, 2023)
